From patent US9657064B2, “Cell penetrating peptides” (UNIVERSITE DE GENEVE, priority 2012, dated 2017) come the findings set out here.

Assay [1] has as its system human astrocytoma cells U251. Description: In vitro transduction of fluorescein-labeled CPP-OVA fusion polypeptides, flow cytometry. It is filed as cell-based. Particulars: 0.9 μM, 2 h at 37° C., ratio of mean fluorescence index between cells alone and loaded cells. The method, then:
(§1) Transduction into cells was monitored using different CPP-OVA fusion polypeptides comprising CPP1, CPP2, CPP8, or CPP10. Each of these CPPs fused with the immunodominant CD8^+ T cell epitope from ovalbumin were chemically synthesized and labeled with fluorescein. 5.10^5 cells were incubated for 2 h at 37° C. with 0.9 μM of the different fusion polypeptides. The cells tested were human lymphoid cells K562, murine lymphoid cells EL4, human astrocytoma cells U251 and murine astrocytoma cells GL261. The cells were washed in an acid buffer to remove all the membrane bound peptide and stained for viability with Live-Dead Yellow. Analysis was performed by flow cytometry. The index of fluorescence indicates the level of fluorescence above the natural auto-fluorescence of the cells. It is the ratio of the mean fluorescence index measured by flow cytometry between the cells alone and the cells loaded with CPP-OVA fusion polypeptides.
(In general: A flow cytometer gives signals particle by particle.)

Assay [2] has as its system human lymphoid cells K562. Described as above. Particulars: 0.9 μM, 2 h at 37° C., ratio of mean fluorescence index between cells alone and loaded cells. It is filed as cell-based. The method, then: as §1
The subject of assay [3] is murine astrocytoma cells GL261. The assay is described as above. It counts as cell-based. The conditions noted are these: 0.9 μM, 2 h at 37° C., ratio of mean fluorescence index between cells alone and loaded cells. The method, then:
as §1

The test system of assay [4] is murine lymphoid cells EL4. The assay is described as above. It counts as cell-based. The conditions noted are these: 0.9 μM, 2 h at 37° C., ratio of mean fluorescence index between cells alone and loaded cells. The method, then: as §1
In assay [5] the test system is ovalbumin CD8+ epitope specific immune response. Description: In vivo vaccination of mice with different CPP-OVA fusion polypeptides, Pentamer staining in blood (Example 5). The conditions noted are these: for Fold increase in proliferation compared to CPP14: 10 nmol s.c. twice at 14 days of interval, with anti-CD40 and poly-IC, relative to CPP14-OVA reference. The method, then: The experiment was performed as described in Example 3.
Four to eight mice per group were vaccinated twice subcutaneously at 14 days of interval with 10 nmol of fusion polypeptides comprising one of the CPPs indicated in Table 2 fused to the ovalbumin CD8^+ epitope (SEQ ID NO: 3) flanked by the spacers of SEQ ID NO: 11 and SEQ ID NO: 12 at the N-terminal and C-terminal part of the CD8^+ epitope, respectively. Each CPP-OVA fusion polypeptide was injected in PBS with 100 μg anti-CD40. 50 μg poly-IC was injected intramuscularly 7 days after the second vaccination. Immune response was monitored in the blood with a Pentamer staining followed by flow cytometry analysis.
The results are presented in Table 3 as fold increase relative to a CPP-OVA fusion polypeptide of reference comprising CPP14 of SEQ ID NO: 22.

Assay [6] deals with ovalbumin-specific CD8+ T cells. Description: Vaccination of mice with CPP-OVA fusion polypeptides, multimer staining of splenocytes (Example 3). It counts as in vivo. The conditions noted are these: 2 s.c. vaccinations at 14 days of interval, 20 μg fusion polypeptide + 100 μg anti-CD40, 50 μg poly-IC i.m., PBS control 0.18%. The method, then:
Mice were vaccinated twice sub-cutaneously at 14 days of interval with 20 μg of each CPPs-OVA fusion polypeptides and 100 μg anti-CD40, 50 μg poly-IC was injected intramuscularly 10 days after the boost, the mice were sacrificed and the splenocytes stained with a multimer and anti-CD8. Negative control with PBS (A); CPP1-OVA (B); CPP2-OVA (C).
To test the capacity of the polypeptides corresponding to constructs 1 and 2 to stimulate antigen-specific CD8^+ T cells in more stringent conditions, they were tested in vivo in a vaccination protocol (FIG. 2). In order to elicit an in vivo response, the polypeptide vaccine must be taken up by naturally present antigen presenting cells in the injected animal, and stimulation of polyclonal T cells must be highly efficient if ovalbumin-specific T cells are to be detected ex vivo. The read-out for these experiments was flow cytometry of splenocytes, using MHC-peptide multimers to detect ovalbumin-specific CD8^+ T cells.

KRYKNRVASRKSRAKFKQLLQHYREVAAAK [CPP2]: the index of fluorescence was 25.1 in assay [1], 15 in assay [2], 20.8 in assay [3] and 57.7 in assay [4]. The “Fold increase in proliferation compared to CPP14” value (shortened to “Fold increase in proliferation”) in assay [5] is 1.41.
Consider QHYREVAAAKSSEND [CPP8], for which the index of fluorescence amounted to 2 in assay [1], 1.9 in assay [2], 1.4 in assay [3] and 2.5 in assay [4]. Moreover, in assay [5], the “Fold increase in proliferation” value stood at 1.28.
The corresponding values for REVAAAKSSENDRLRLLLK [CPP10] are 4, 3.7, 1.9, 4 and 2.17.
Consider KRYKNRVASRKSRAKFK (CCP1) [CPP1], for which the index of fluorescence in assay [1] was 4.5; in assay [2], 3; in assay [3], 2.4; in assay [4] it was 4.8. Further, the “Fold increase in proliferation” value in assay [5] stood at 1.74.
As to “KRYKNRVASRKSRAKFKQLLQHYREVAAAKEQLESIINFEKLTEWT [construct 2]”, the “CD8+ T cells multimer positive (ovalbumin-specific CD8+ T cells)” value in assay [6] is recorded as “over 1%”.
Turning to “KRYKNRVA [CPP7, 8-amino acid-long fragment of Zebra, positions 178 to 185; negative control, tested as CPP-OVA fusion, reference compound]”, the “immunogenic potential compared to the reference fusion polypeptide comprising CPP14” value in assay [5] (10 nmol s.c. twice) is “lower immunogenic potential”. The “Fold increase in proliferation” value in assay [5] was 0.65.
